According to US10858422B2, “Methods for treating systemic lupus erythematosus with an anti-apolipoprotein B antibody” (Abcentra, LLC, priority 2016, dated 2020):
Marks after values point to notes of the source that are not given here.

What was measured:
gld.apoE−/− mice = assay: Relative anti-P210 IgM/IgG antibody levels in serum (ELISA); format: in vivo, mouse; conditions: normal diet (ND), ± SEM
Procedure: Each animal dosed with a test article received subcutaneous primary immunization in the dorsal interscapular area at Day 0 (7 weeks of age), followed by a booster on Day 21 and 35 (10 and 12 weeks of age). CVX-3-84 was used to dose ApoE^−/− (n=20), gld mice (n=20). CVX-3-123 was used to dose gld.ApoE^−/− (n=30 on high cholesterol chow; n=30 on normal chow diet).
20 gld.ApoE^−/− mice in the positive control group received an oral dose of rosiglitazone at 10 mg/kg/day in normal chow starting on Day 0 (7 weeks of age) and continuing for the duration of the study period. Mice receiving Rosiglitazone were sacrificed at Day 126 (25 weeks of age).
Serum and urine was collected at day 63 of the study (16 weeks of age). Serum collected at day 63 of the study was analyzed for anti-P210 IgM and IgG antibodies. Levels of oxidized phospholipid was also measured in gld.apoE^−/− mice maintained on normal diet.
Serum and urine was collected at euthanasia. Endpoint serum was analyzed for anti-nuclear antibody (ANA) titers, total cholesterol, triglycerides, anti-P210 IgM antibodies, and anti-P210 IgG antibodies. Endpoint serum from gld.ApoE^−/− animals maintained on normal diet was also analyzed for anti-cardiolipin antibodies. Anti-nuclear antibody titers were tested using the NOVA-lite Hep2 ANA assay, and serum dilutions of 1:100, 1:1000, 1:10000, 1:30000, and 1:90000 were tested for nuclear-localized antibody reactivity to human epithelial cells. Reactivity was detected using FITC-conjugated goat anti-mouse IgG antibody. ANAs were scored based on the presence or absence of antibody signal at each titer. Total cholesterol was assessed using Cholesterol E reagent according to the manufacturer's protocol. Triglyceride levels were assessed with Triglyceride Reagent and with a glycerol standard. Anti-P210 antibodies were detected by ELISA using reconstituted P210 peptide.

[1] = test system: Spleen T-cells from gld.apoE−/− mice; assay: Cytokine production from spleen T-cells activated by CD3/CD28; format: in vivo, mouse; conditions: Avg; for IFN-γ production / IL-6 production / IL-10 production / IL-12 (p70) production: Normal Diet; for TNFα Production from Spleen T-cells: Western Diet
Procedure: Lymph nodes and spleen were harvested and weighed. Splenocytes were isolated and analyzed for T-regulatory cell populations by immunofluorescence staining and flow cytometry. Splenocytes were also cultured and T-cells activated in vitro by Mouse T-Activator CD3/CD28. Production of cytokines INF-γ, IL-6, IL-10, IL-12, and […] by activated T-cells were assessed with immunoassays.
CVX-12 immunization is hypothesized to impact atherosclerosis via modulation of T-cell cytokine release. Thus cytokine release by cultured splenocytes activated by CD3 and CD28 was assessed for the cytokines IFNγ, IL-6, IL-10, IL-12 (p70), and TNFα (Tables 6-12). CVX-12 immunization increased IL-6 and IL-10 cytokine release from spleen T-cells in apoE^−/− mice. […] IL-10 release from gld.apoE^−/− splenocytes was decreased by CVX-12 immunization of gld.apoE^−/− mice on western diet.

MRL/lpr ApoE−/− mice = assay: Flow cytometry of blood, spleen and lymph node cells after oral immunization; format: in vivo, mouse; conditions: 30 μg/ml
human PBMC = assay: Death receptor activation of human PBMC: release of soluble death receptors, apoptosis; format: cell-based; conditions: for release of Fas into culture medium / release of TNF-R1: healthy donor PBMC, Fas ligand 0.5 μg/ml, IL-1β 10 ng/ml, TNF 10 ng/ml, LPS 10 μg/ml
Source text: PBMCs from SLE patients (n=6, x female and x male, age x+/−x years) and matched healthy controls (n=6, x female and x male, age x+/−x years) as well as from a healthy donor were isolated using FicollPaque Plus (GE healthcare, Waukesha, Wis., USA) density gradient centrifugation according to manufacturer's instructions. The cells from SLE patients and controls were resuspended in 40% autologous serum, 40% RPMI 1640 medium (Thermo Fisher Scientific, Waltham, Mass., USA) and 20% dimethyl sulfoxide (Sigma Aldrich, St. Louis, […]., USA) and frozen in liquid nitrogen.
Cells from healthy donors were seeded freshly at a density of 0.5×10^6 cells per well in complete RPMI (10 U/ml Penicillin/streptomycin, 1% L-glutamine, 1% sodium pyruvate, 1% Hepes and 0.1% mercaptoethanol) with 2% FBS (HyClone South Logan, Utah, USA). For death receptor activation, IL-1β, soluble Fas ligand, TNF (Peprotech, Rocky Hill, N.J., USA) and LPS (Sigma Aldrich) were used at a concentration of 10 ng/ml, 0.5 μg/ml, 10 ng/ml and 10 μg/ml respectively.
Cells from a healthy donor were seeded freshly at a density of 0.5×10^6 cells per well in complete RPMI (10 U/ml Penicillin/streptomycin, 1% L-glutamine, 1% sodium pyruvate, 1% Hepes and 0.1% mercaptoethanol) with 2% FBS (HyClone South Logan, Utah, USA). For death receptor activation, IL-1β, soluble Fas ligand, TNFα (Peprotech, Rocky Hill, N.J., USA) and LPS (Sigma Aldrich) were used at a concentration of 10 ng/ml, 0.5 μg/ml, 10 ng/ml and 10 μg/ml respectively.
Cell supernatants from death receptor activated PBMCs from a healthy donor and SLE patients/controls were used for measurement of soluble Fas, TNF-R1 and TRAIL-R2 with a magnetic bead system multiplex assay (R&D Systems, Minneapolis, Minn., USA) obtained by Luminex machine (Bio-Rad). For SLE patients and controls, TNF-R1 concentration was measured with ELISA (Abcam) according to manufacturer's recommendations.

**Q.** How did the “anti-P210 IgG” value (gld.apoE−/− mice; Endpoint) turn out when `CN(CCOc1ccc(CC2SC(=O)NC2=O)cc1)c1ccccn1` (stereo not shown) [Rosiglitazone] was run?
**A.** The value was 0.68 ± 0.07 OD at 405 nm.

**Q.** And the “anti-P210 IgM” value (gld.apoE−/− mice; Endpoint)?
**A.** Its value is 0.42 ± 0.06 ^a, c OD at 405 nm.

**Q.** And the “anti-P210 IgG” value (gld.apoE−/− mice; Midpoint)?
**A.** Its value is 0.68 ± 0.07 OD at 405 nm.

**Q.** And the “anti-P210 IgM” value (gld.apoE−/− mice; Midpoint)?
**A.** The value was 0.64 ± 0.03 OD at 405 nm.

**Q.** What about the IFN-γ production ([1]; Stimulated) of the same molecule?
**A.** Its IFN-γ production is 11419.9 pg/mL.

**Q.** What about the IL-6 production ([1]; Stimulated) of the same molecule?
**A.** Its IL-6 production is 385.0* pg/mL.

**Q.** What about the IL-10 production ([1]; Stimulated) of the same molecule?
**A.** Its IL-10 production is 1528.3 pg/mL.

**Q.** And the “IL-12 (p70) production” value ([1]; Stimulated)?
**A.** The value was 44.7 pg/mL.

**Q.** And the IFN-γ production ([1]; Unstimulated)?
**A.** The IFN-γ production was 24.2* pg/mL.

**Q.** What about the IL-6 production ([1]; Unstimulated) of the same molecule?
**A.** The IL-6 production was 255.9* pg/mL.

**Q.** What about the IL-10 production ([1]; Unstimulated) of the same molecule?
**A.** Its IL-10 production is 196.0 pg/mL.

**Q.** And the “IL-12 (p70) production” value ([1]; Unstimulated)?
**A.** Its value is 89.2 pg/mL.

**Q.** And the “TNFα Production from Spleen T-cells” value ([1]; Stimulated (CD3/CD28))?
**A.** Its value is 39.5 pg/mL.

**Q.** What about the “TNFα Production from Spleen T-cells” value ([1]; Unstimulated) of the same molecule?
**A.** The value was 8.9 pg/mL.

**Q.** CTB was tested. Which “central memory T cells in lymph node” value (MRL/lpr ApoE−/− mice) did it give?
**A.** The value was 34.5±10.6%.

**Q.** And the “central memory helper T cells (CD3+CD4+CD62L+CD44int-hi) in spleen” value (MRL/lpr ApoE−/− mice)?
**A.** The value was 19.4±5.2%.

**Q.** What about the “cytolytic T cell populations (CD3+CD8+CD62L+CD44int-hi) in spleen” value (MRL/lpr ApoE−/− mice) of the same molecule?
**A.** Its value is 18.2±3.7%.

**Q.** Which results are given for “IL-1β: cytokine stimulus, 10 ng/ml [reference compound]”?
**A.** release of Fas into culture medium (human PBMC): no effect; release of TNF-R1 (human PBMC): stimulated

**Q.** How did the “release of Fas into culture medium” value (human PBMC) turn out when TNF-α [reference compound] was run?
**A.** The value was “no effect”.

**Q.** What about the “release of TNF-R1” value (human PBMC) of the same molecule?
**A.** Its value is “no effect”.

B1: Fas ligand: soluble Fas ligand used for death receptor activation of PBMC (protein)
chain: PSPPPEKKELRKVAHLTGKSNSRSMPLEWEDTYGIVLLSGVKYKKGGLVINETGLYFVYSKVYFRGQSCNNLPLSHKVYMRNSKYPQDLVMMEGKMMSYCTTGQMWARSSYLGAVFNLTSADHLYVNVSELSLVNFEESQTFFGLYKL
**Q.** How did the “increase in the release of FAS” value (human PBMC; PBMCs from SLE patients) turn out when B1 was run?
**A.** The value was 73%.

**Q.** What about the “frequency of apoptotic lymphocytes” value (human PBMC; PBMCs from healthy controls (not in PBMCs from SLE patients)) of the same molecule?
**A.** The value was “increased”.

**Q.** And the “release of Fas into culture medium” value (human PBMC)?
**A.** The value was “stimulated”.

**Q.** What about the “release of TNF-R1” value (human PBMC) of the same molecule?
**A.** The value was “stimulated”.
